From US20260285850A1, “SUBSTITUTED OXAZOLIDINONES AND IMIDAZOLINONES AS HERBICIDES” (FMC CORPORATION, priority 2023, published 2026)

Legend:
Assay type in all cases: in vivo
[1] = test system: barnyardgrass (Echinochloa crus-galli); experiment: Test A preemergence soil spray, visual injury rating 0-100; conditions: 10 days
In short: (§1)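 Grow plants in loam soil blended with sand. Apply formulated compound (non-phytotoxic solvent, surfactant) as a directed soil spray before emergence, or to plants at the one- to two-leaf stage after emergence. Hold in greenhouse 10 days, then rate injury visually versus untreated controls on a 0-100 scale.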

[2] = test system: blackgrass (Alopecurus myosuroides); experiment: as above; conditions: 10 days
In short: as §1

corn (Zea mays) [3] = experiment: as above; conditions: 10 days
In short: as §1

[4] = test system: green foxtail (Setaria viridis); experiment: as above; conditions: 10 days
In short: as §1

kochia (Bassia scoparia) [5] = experiment: as above; conditions: 62 g ai/ha, 10 days, 0 = no effect, 100 = complete control
In short: as §1

[6] = test system: oat, wild (wild oat, Avena fatua); experiment: as above; conditions: 10 days
In short: as §1

[7] = test system: palmer (palmer amaranth, palmer pigweed, Amaranthus palmeri); experiment: as above; conditions: 10 days
In short: as §1

[8] = test system: ragweed (common ragweed, Ambrosia artemisiifolia); experiment: as above; conditions: 10 days
In short: as §1

[9] = test system: ryegrass, Italian (italian ryegrass, Lolium multiflorum); experiment: as above; conditions: 10 days
In short: as §1

soybean (Glycine max) [10] = experiment: as above; conditions: 10 days
In short: as §1

[11] = test system: wheat (Triticum aestivum); experiment: as above; conditions: 10 days
In short: as §1

[12] = test system: barnyardgrass (Echinochloa crus-galli); experiment: Test A postemergence application, visual injury rating 0-100
In short: as §1

[13] = test system: blackgrass (Alopecurus myosuroides); experiment: as above
In short: as §1

corn (Zea mays) [14] = experiment: as above
In short: as §1

[15] = test system: galium (catchweed bedstraw, Galium aparine); experiment: as above
In short: as §1

[16] = test system: green foxtail (Setaria viridis); experiment: as above
In short: as §1

[17] = test system: horseweed (Erigeron canadensis); experiment: as above
In short: as §1

kochia (Bassia scoparia) [18] = experiment: as above
In short: as §1

[19] = test system: oat, wild (wild oat, Avena fatua); experiment: as above
In short: as §1

[20] = test system: palmer (palmer amaranth, palmer pigweed, Amaranthus palmeri); experiment: as above
In short: as §1

[21] = test system: ragweed (common ragweed, Ambrosia artemisiifolia); experiment: as above
In short: as §1

[22] = test system: ryegrass, Italian (italian ryegrass, Lolium multiflorum); experiment: as above
In short: as §1

soybean (Glycine max) [23] = experiment: as above
In short: as §1

[24] = test system: wheat (Triticum aestivum); experiment: as above
In short: as §1

[25] = test system: barnyardgrass (Echinochloa crusgalli); experiment: Test B flooded paddy test, visual plant response rating 0-100; conditions: 250 g ai/ha, Flood, applied to paddy water, evaluated after 13 days
In short: (§2)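 Each species was raised to two leaves before flooding to a 3 cm depth and dosing the water with compound. Injury was assessed by eye after 13 days under greenhouse conditions.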

[26] = test system: ducksalad (Heteranthera limosa); experiment: as above; conditions: 250 g ai/ha, Flood, applied to paddy water, evaluated after 13 days
In short: as §2

rice (Oryza sativa) = experiment: as above; conditions: 250 g ai/ha, Flood, applied to paddy water, evaluated after 13 days
In short: as §2

[27] = test system: sedge, umbrella (small-flower umbrella sedge, Cyperus difformis); experiment: as above; conditions: 250 g ai/ha, Flood, applied to paddy water, evaluated after 13 days
In short: as §2

[28] = 62 g ai/ha, 0 = no effect, 100 = complete control
[29] = 62 g ai/ha, postemergence, 10 days, 0 = no effect, 100 = complete control
[30] = Postemergence, 16 g ai/ha, greenhouse 10 days, 0 no effect, 100 complete control

COC(=O)C1=CCC(NC(=O)C2(C)CN(c3cc(Cl)c(F)c(Cl)c3)C(=O)O2)C1 (stereo not drawn) [Compound 129]
Barnyardgrass plant response rating ([1]; 16 g ai/ha, 0 to 100 scale): 0 | Barnyardgrass plant response rating (0-100) [1, 28]: 30 | Blackgrass plant response rating ([2]; 16 g ai/ha, 0 to 100 scale): 0 | Blackgrass plant response rating (0-100) [2, 28]: 0 | Corn plant response rating (corn (Zea mays) [3]; 16 g ai/ha, 0 to 100 scale): 0 | Corn plant response rating (0-100) (corn (Zea mays) [3]; [28]): 30 | Foxtail, Green plant response rating ([4]; 16 g ai/ha, 0 to 100 scale): 0 | Foxtail, Green plant response rating (0-100) [4, 28]: 0 | Kochia plant response rating (0-100) (kochia (Bassia scoparia) [5]): 0 | Oat, Wild plant response rating ([6]; 16 g ai/ha, 0 to 100 scale): 0 | Oat, Wild plant response rating (0-100) [6, 28]: 0 | Pigweed, Palmer plant response rating ([7]; 16 g ai/ha, 0 to 100 scale): 0 | Pigweed, Palmer plant response rating (0-100) [7, 28]: 20 | Ragweed plant response rating ([8]; 16 g ai/ha, 0 to 100 scale): 0 | Ragweed plant response rating (0-100) [8, 28]: 0 | Ryegrass, Italian plant response rating ([9]; 16 g ai/ha, 0 to 100 scale): 0 | Ryegrass, Italian plant response rating (0-100) [9, 28]: 40 | Soybean plant response rating (soybean (Glycine max) [10]; 16 g ai/ha, 0 to 100 scale): 0 | Soybean plant response rating (0-100) (soybean (Glycine max) [10]; [28]): 0 | Wheat plant response rating ([11]; 16 g ai/ha, 0 to 100 scale): 0 | Wheat plant response rating (0-100) [11, 28]: 20 | Barnyardgrass plant response rating (0-100) [12, 29]: 100 | Barnyardgrass plant response rating (0 to 100 scale) [12, 30]: 80 | Blackgrass plant response rating (0-100) [13, 29]: 40 | Blackgrass plant response rating (0 to 100 scale) [13, 30]: 20 | Corn plant response rating (0-100) (corn (Zea mays) [14]; [29]): 100 | Corn plant response rating (0 to 100 scale) (corn (Zea mays) [14]; [30]): 70 | Galium plant response rating (0-100) [15, 29]: 80 | Galium plant response rating (0 to 100 scale) [15, 30]: 70 | Foxtail, Green plant response rating (0-100) [16, 29]: 90 | Foxtail, Green plant response rating (0 to 100 scale) [16, 30]: 20 | Horseweed plant response rating (0-100) [17, 29]: 60 | Horseweed plant response rating (0 to 100 scale) [17, 30]: 0 | Kochia plant response rating (0-100) (kochia (Bassia scoparia) [18]; [29]): 80 | Kochia plant response rating (0 to 100 scale) (kochia (Bassia scoparia) [18]; [30]): 50 | Oat, Wild plant response rating (0-100) [19, 29]: 20 | Oat, Wild plant response rating (0 to 100 scale) [19, 30]: 10 | Pigweed, Palmer plant response rating (0-100) [20, 29]: 70 | Pigweed, Palmer plant response rating (0 to 100 scale) [20, 30]: 50 | Ragweed plant response rating (0-100) [21, 29]: 30 | Ragweed plant response rating (0 to 100 scale) [21, 30]: 0 | Ryegrass, Italian plant response rating (0-100) [22, 29]: 60 | Ryegrass, Italian plant response rating (0 to 100 scale) [22, 30]: 30 | Soybean plant response rating (0-100) (soybean (Glycine max) [23]; [29]): 70 | Soybean plant response rating (0 to 100 scale) (soybean (Glycine max) [23]; [30]): 20 | Wheat plant response rating (0-100) [24, 29]: 80 | Wheat plant response rating (0 to 100 scale) [24, 30]: 10 | Plant response rating, Barnyardgrass (0 to 100 scale, 0 is no effect and 100 is complete control) [25]: 50 | Plant response rating, Ducksalad (0 to 100 scale, 0 is no effect and 100 is complete control) [26]: 70 | Plant response rating, Rice (0 to 100 scale, 0 is no effect and 100 is complete control) (rice (Oryza sativa)): 40 | Plant response rating, Sedge, Umbrella (0 to 100 scale, 0 is no effect and 100 is complete control) [27]: 90
